Some results are limits rather than exact numbers.

Data set [1] deals with Jurkat. The data set can be described thus: Immunosuppressive activity in human Jurkat cells assessed as inhibition of concanavalin A-induced IL-2 production at 20 uM pretreated for 30 mins followed by concanavalin A stimulation after 12 hrs by immunoassay relative to control. The data set is classed as functional.
Data set [2] deals with Jurkat. In words: Immunosuppressive activity in human Jurkat cells assessed as inhibition of concanavalin A-induced IL-2 production pretreated for 30 mins followed by concanavalin A stimulation after 12 hrs by immunoassay. The data set is classed as functional, cell-based.
In data set [3] the test system is Jurkat. In words: Cytotoxicity against concanavalin A-induced human Jurkat cells assessed as reduction in cell viability up to 20 uM pretreated for 30 mins followed by concanavalin A stimulation after 12 hrs by MTT assay. The class given is cell-based. On the technique in general: Tetrazolium assays rely on reduction of a dye to a coloured formazan, in cell work by metabolically active cells.

As to `CCCCCC[C@H]1C[C@H]1CCCCCc1cc(O)c(Cl)c(O)c1`, in the data set with Jurkat [1], the inhibition (in general, the percentage by which the read-out fell short of the control) at 20 µM is below 50%. `CCCCCCCCCCCCCc1cc(O)c(Cl)c(O)c1`: the inhibition at 20 µM with Jurkat [1] was below 50%. In the data set with Jurkat [2], the IC50 (usually the midpoint of a concentration-inhibition curve) came out at 16 µM and the inhibition entry is “Dose-dependent effect”. Moreover, in the data set with Jurkat [3], the Activity result is “Non-Toxic”. On to `CCCCCC/C=C\CC/C=C\CCCc1cc(O)c(Cl)c(O)c1`, for which the inhibition at 20 µM in the data set on Jurkat [1] is below 50%. As for `CCCCCC[C@H]1C[C@H]1CCCCCCCc1cc(O)c(Cl)c(O)c1`, the inhibition at 20 µM in the data set with Jurkat [1] was below 50%. Turning to `CCCCCCCCCCCCCCCc1cc(O)c(Cl)c(O)c1`, the inhibition at 20 µM in the data set on Jurkat [1] is below 50%. Same read-out and setting: as for `CCCCCCCCCCCCCCc1cc(O)c(Cl)c(O)c1`, the figure is below 50%; as for `CCCCCC/C=C\CCCCCCCc1cc(O)c(Cl)c(O)c1`, below 50%. Still for that read-out and setting: as for `CCCCCC/C=C\CCCCCc1cc(O)c(Cl)c(O)c1`, the figure is below 50%.

Values taken from ChEMBL document CHEMBL4130440, “Isolation, Synthesis, and Biological Activity of Chlorinated Alkylresorcinols from Dictyostelium Cellular Slime Molds” (J Nat Prod, 2017).
